In patent US20060009426A1, “Pharmaceutical compositions comprising calcitriol and a clobetasol propionate” (GALDERMA RESEARCH & DEVELOPMENT, S.N.C., priority 2002, published 2006):

Legend:
mouse ear oedema = test: Ear oedema in the delayed hypersensitivity model of mice sensitized with a hapten (oxazolone); assay type: in vivo, Balb/c mice
Description: This test represents a reliable model for predicting the immunomodulatory properties of a product in a pathology of Th1 type such as psoriasis.
(§1) 8-week-old Balb/c mice are pretreated on the abdominal skin from day 1 to day 6 using product A or B, or A and B diluted in ethanol. On day 6, the mice are actively sensitized by the topical application of 50 mg of oxazolone (oxa) in ethanol onto the abdominal skin. On day 11, an application of 20 mg of oxa in ethanol is performed on the right ear.
Student's t test was used for the statistical analysis of the results.
The thickness of the ear is measured, using a micrometer, on day 11 (just before the application of oxazolone to the presensitized mice) and after 24 hours, on day 12. The ear oedema is expressed as the difference between the measurement of the thickness of the ear between day 12 and day 11. The values of the thickness of the ear are analyzed statistically using Student's t test.

[1] = tested on: auricular ganglionic cells; test: Count of the auricular ganglionic cells in oxazolone-sensitized mice; assay type: in vivo, Balb/c mice; settings: dose series, day 12, cells per animal
Description: as §1
On day 12, one day after the repeated application of the oxa, the animals were sacrificed by cervical dislocation. The ganglionic cells are collected and combined by experimental group. A cell suspension is prepared and the cells are then counted. The number of cells is expressed per animal.

## CCC(=O)O[C@]1(C(=O)CCl)[C@@H](C)C[C@H]2[C@@H]3CCC4=CC(=O)C=C[C@]4(C)[C@@]3(F)[C@@H](O)C[C@@]21C [product B, clobetasol propionate]
Mouse ear oedema; clobetasol propionate alone at 0.01%, topical
  efficacy on inflammation (ear oedema, FIGS. 1 and 2): moderate efficacy
Mouse ear oedema; dose series, topical pretreatment day 1 to day 6, oedema = ear thickness day 12 minus day 11
  effect of topical application on the intensity of mouse ear oedema (FIG. 1): dose-response effect
[1]
  effect on the count of auricular ganglionic cells (FIG. 3): dose-response effect
